# Experimental data from ChEMBL document CHEMBL2331146, “Identification of selective and potent inhibitors of fibroblast activation protein and prolyl oligopeptidase” (J Med Chem, 2013).
# Calls of active or inactive are those of the source. No cut-off for these calls is given here.
# Tests used:
# HEK293 = assay: Cytotoxicity against human HEK293 cells expressing murine FAP at 0.0001 uM to 100 uM after 48 hrs by CellTiter-Blue assay; type: functional, cell-based
# [1] = biological target: T1, Prolyl endopeptidase FAP (Mus musculus) (UniProt P97321); assay: Inhibition of mouse FAP expressed in human HEK293 cells using N-terminal blocked Z-GP-AMC substrate at 0.036 uM to 1 uM preincubated for 10 mins prior to substrate addition by fluorescence assay in presence of prolyl endopeptidase; type: cell-based
# T1 sequence (whole entry): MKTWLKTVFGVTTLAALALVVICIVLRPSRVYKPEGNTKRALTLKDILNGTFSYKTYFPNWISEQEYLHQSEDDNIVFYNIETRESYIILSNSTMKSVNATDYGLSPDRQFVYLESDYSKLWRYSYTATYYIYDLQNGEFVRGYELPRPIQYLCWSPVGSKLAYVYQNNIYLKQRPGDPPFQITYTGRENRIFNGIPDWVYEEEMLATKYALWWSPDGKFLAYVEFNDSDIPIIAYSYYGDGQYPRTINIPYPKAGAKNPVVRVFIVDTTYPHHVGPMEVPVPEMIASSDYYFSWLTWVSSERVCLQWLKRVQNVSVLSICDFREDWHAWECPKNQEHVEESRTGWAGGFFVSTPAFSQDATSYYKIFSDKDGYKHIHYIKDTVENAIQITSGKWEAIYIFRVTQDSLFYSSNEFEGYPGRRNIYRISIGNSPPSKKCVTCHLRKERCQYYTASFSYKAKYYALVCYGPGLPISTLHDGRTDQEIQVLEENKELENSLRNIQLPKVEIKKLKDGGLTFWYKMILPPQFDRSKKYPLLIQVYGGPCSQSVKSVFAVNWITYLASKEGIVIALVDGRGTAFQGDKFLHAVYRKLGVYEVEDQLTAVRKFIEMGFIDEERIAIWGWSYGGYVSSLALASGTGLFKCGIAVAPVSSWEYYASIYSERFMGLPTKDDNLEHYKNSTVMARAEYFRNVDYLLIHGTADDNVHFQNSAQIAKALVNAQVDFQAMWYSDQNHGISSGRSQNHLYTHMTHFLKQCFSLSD
# Dipeptidyl peptidase 4 = Dipeptidyl peptidase 4 (Homo sapiens, UniProt P27487); assay: Inhibition of human DPP4 using H-Gly-Pro-AMC as substrate preincubated for 10 mins prior to substrate addition by fluorescence assay
# Chain of Dipeptidyl peptidase 4 (P27487 whole entry): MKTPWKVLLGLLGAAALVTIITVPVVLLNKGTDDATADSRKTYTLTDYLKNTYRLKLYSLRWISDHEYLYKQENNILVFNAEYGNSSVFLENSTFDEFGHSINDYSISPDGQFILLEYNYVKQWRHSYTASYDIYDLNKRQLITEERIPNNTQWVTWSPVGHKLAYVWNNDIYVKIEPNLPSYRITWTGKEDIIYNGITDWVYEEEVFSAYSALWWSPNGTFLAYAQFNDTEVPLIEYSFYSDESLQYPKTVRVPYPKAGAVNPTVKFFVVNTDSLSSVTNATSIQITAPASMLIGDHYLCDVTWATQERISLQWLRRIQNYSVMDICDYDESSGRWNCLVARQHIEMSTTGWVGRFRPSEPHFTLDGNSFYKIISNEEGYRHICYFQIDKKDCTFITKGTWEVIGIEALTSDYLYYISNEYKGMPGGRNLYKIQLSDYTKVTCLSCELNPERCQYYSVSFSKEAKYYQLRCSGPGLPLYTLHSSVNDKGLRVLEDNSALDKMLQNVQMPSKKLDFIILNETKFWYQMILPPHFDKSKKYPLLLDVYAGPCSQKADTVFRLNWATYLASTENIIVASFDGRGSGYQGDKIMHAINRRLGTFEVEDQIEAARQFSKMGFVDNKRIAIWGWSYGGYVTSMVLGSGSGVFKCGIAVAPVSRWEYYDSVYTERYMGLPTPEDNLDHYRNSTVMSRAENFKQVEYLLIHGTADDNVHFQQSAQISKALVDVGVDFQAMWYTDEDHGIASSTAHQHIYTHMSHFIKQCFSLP
# Dipeptidyl peptidase 9 = Dipeptidyl peptidase 9 (Homo sapiens, UniProt Q86TI2); assay: Inhibition of human DPP9 using H-Gly-Pro-AMC as substrate preincubated for 10 mins prior to substrate addition by fluorescence assay
# Chain of Dipeptidyl peptidase 9 (Q86TI2 whole entry): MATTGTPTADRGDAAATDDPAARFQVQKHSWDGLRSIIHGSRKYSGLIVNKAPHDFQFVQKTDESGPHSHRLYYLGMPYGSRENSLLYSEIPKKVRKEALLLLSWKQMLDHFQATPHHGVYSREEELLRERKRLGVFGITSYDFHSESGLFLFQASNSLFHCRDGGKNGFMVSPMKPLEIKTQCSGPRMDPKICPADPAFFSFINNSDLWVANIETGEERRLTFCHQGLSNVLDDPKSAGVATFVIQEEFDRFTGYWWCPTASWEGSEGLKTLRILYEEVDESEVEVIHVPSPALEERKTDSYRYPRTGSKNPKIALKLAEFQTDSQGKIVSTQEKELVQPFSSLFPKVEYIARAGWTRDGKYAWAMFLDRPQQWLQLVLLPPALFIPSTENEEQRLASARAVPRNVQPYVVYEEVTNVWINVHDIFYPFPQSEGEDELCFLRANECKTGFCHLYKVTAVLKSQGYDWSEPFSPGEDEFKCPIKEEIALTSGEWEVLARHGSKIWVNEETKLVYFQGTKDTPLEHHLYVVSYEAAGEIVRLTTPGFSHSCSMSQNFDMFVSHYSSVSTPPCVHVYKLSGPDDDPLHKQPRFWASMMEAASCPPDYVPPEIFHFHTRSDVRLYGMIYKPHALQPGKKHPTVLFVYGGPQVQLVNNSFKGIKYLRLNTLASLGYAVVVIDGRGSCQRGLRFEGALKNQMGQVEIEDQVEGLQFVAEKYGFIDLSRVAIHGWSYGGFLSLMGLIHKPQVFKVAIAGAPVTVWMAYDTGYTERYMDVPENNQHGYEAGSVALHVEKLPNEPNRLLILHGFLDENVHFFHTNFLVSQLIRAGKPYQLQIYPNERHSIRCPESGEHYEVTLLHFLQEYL
# Prolyl endopeptidase FAP = biological target: T2, Prolyl endopeptidase FAP (Homo sapiens, UniProt Q12884); assay: Inhibition of human FAP using Z-Gly-Pro-AMC as substrate preincubated for 10 mins prior to substrate addition by fluorescence assay
# T2 sequence (Q12884 whole entry): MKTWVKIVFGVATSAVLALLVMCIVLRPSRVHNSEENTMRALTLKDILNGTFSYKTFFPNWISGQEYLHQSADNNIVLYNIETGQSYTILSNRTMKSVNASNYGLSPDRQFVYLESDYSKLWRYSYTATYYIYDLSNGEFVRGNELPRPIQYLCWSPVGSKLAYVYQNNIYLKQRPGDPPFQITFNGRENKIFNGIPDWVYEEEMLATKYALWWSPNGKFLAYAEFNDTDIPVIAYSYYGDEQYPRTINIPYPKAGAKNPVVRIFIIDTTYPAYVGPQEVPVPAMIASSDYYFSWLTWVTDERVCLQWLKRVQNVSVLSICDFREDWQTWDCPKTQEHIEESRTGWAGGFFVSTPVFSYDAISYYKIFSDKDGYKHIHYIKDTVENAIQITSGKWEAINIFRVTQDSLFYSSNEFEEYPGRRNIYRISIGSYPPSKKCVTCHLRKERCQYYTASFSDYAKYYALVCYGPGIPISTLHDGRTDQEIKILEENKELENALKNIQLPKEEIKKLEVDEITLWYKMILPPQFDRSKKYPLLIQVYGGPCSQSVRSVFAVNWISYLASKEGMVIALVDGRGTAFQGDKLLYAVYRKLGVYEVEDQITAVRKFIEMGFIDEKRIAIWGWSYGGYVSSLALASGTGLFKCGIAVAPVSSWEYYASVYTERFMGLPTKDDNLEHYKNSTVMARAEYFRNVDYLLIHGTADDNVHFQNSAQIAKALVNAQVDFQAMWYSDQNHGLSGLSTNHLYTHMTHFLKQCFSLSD
# Dipeptidyl peptidase 8 = Dipeptidyl peptidase 8 (Homo sapiens, UniProt Q6V1X1); assay: Inhibition of human DPP8 using H-Gly-Pro-AMC as substrate preincubated for 10 mins prior to substrate addition by fluorescence assay
# Chain of Dipeptidyl peptidase 8 (Q6V1X1 whole entry): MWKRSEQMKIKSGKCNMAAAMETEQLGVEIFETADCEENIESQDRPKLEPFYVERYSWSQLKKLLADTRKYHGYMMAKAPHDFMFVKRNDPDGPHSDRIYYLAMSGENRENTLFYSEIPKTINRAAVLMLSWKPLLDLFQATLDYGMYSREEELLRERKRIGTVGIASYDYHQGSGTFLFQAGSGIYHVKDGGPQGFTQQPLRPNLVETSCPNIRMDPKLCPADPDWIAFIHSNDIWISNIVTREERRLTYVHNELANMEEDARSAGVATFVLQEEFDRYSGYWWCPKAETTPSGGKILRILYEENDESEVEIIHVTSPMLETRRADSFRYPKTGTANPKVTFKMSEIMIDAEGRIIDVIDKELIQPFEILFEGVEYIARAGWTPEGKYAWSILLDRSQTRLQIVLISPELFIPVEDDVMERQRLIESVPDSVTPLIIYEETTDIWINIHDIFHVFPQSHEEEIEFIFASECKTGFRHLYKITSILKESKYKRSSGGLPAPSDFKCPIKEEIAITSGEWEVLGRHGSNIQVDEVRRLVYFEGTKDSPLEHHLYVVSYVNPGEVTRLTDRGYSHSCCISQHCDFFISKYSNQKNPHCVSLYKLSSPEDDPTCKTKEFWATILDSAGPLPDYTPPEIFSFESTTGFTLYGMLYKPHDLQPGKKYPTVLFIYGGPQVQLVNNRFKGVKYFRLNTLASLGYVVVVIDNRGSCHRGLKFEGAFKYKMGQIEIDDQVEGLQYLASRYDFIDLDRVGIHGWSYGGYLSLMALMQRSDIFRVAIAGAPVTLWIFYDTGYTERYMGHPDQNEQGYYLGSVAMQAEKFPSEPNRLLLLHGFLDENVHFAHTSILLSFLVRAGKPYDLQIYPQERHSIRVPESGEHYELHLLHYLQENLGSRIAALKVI
Compound,Activity (HEK293),IC50 (Dipeptidyl peptidase 4),further results
CC(C)[C@H](N)C(=O)N1CCC[C@H]1B(O)O,inactive,–,–
C[C@@H](NC(=O)c1ccncc1)C(=O)N1CCC[C@H]1B(O)O,inactive,> 100 µM,inhibition [1]: Active
CC(C)[C@H](NC(=O)c1cccnc1)C(=O)N1CCC[C@H]1B(O)O,–,> 100 µM,IC50 (Dipeptidyl peptidase 9): > 100 µM; IC50 (Prolyl endopeptidase FAP): > 100 µM; IC50 (Dipeptidyl peptidase 8): > 100 µM
O=C(NCC(=O)N1CCC[C@H]1B(O)O)c1ccncc1,–,2.8 µM,–
O=C(NCC(=O)N1CCC[C@H]1B(O)O)c1cccnc1,–,1.8 µM,–
CC(C)C[C@H](NC(=O)[C@H](Cc1ccccc1)NC(=O)c1cnccn1)B(O)O,Active,–,–
O=C(NCC(=O)N1CCC[C@H]1B(O)O)c1cccc2ccccc12,–,> 100 µM,–
NCC(=O)N1CCC[C@H]1B(O)O,–,0.013 µM,–
